The record followed here is patent US11059789B2, “Isoquinoline-steroid conjugates and uses thereof” (priority 2018, dated 2021).

The structures appear in SMILES notation. Structures can show the parent of a compound that is named as a salt.

One data set has as its system NFkB. The experiment in a line: NFkB assay. It counts as cell-based. The settings on record: HCl salt. The method, then: (§1) Inhibition of various kinases was assayed.
In another data set the target is AKT1 (Homo sapiens (Human), UniProt P31749). As to the kind of experiment: Kinase assay AKT1. In kind it is biochemical. The note with it: HCl salt. As to the method:
as §1

The target in a further data set is IKKb (Homo sapiens (Human), UniProt O14920). The experiment in a line: Kinase assay IKKb. In kind it is biochemical. The settings on record: HCl salt. The method, then: as §1
IKKb, sequence (O14920 whole entry, species assumed): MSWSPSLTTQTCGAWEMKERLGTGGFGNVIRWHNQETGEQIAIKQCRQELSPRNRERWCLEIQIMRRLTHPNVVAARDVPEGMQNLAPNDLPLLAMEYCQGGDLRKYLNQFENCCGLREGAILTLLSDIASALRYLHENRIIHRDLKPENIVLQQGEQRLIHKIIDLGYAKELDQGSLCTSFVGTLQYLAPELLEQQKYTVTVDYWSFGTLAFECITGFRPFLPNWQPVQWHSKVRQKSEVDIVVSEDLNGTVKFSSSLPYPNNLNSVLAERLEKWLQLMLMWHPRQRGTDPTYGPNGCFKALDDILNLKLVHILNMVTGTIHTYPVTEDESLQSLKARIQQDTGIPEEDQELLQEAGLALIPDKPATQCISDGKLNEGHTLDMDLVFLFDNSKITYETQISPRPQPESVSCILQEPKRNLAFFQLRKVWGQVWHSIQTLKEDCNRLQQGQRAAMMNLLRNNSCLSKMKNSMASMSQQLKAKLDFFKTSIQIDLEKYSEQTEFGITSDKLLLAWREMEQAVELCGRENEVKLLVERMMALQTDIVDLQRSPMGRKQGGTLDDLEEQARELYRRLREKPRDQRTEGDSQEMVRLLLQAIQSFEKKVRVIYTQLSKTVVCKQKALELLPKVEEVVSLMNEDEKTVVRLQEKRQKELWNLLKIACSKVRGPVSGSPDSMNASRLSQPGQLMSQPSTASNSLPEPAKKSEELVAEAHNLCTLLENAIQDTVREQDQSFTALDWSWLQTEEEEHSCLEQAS
In another data set the target is PKA (Homo sapiens, UniProt P17612). The experiment in a line: Kinase assay PKA. It counts as biochemical. The note with it: HCl salt. The method, then: as §1
The target in another data set is JAK1 (Homo sapiens (Human), UniProt P23458). As to the kind of experiment: Kinase assay JAK1. In kind it is biochemical. The note with it: HCl salt. The method, then:
as §1

The target of the next data set is PKCh (Homo sapiens (Human), UniProt P24723). As to the kind of experiment: Kinase assay PKCh. In kind it is biochemical. The note with it: HCl salt. As to the method:
as §1

A further data set addresses PKCd (Homo sapiens (Human), UniProt Q05655). As to the kind of experiment: Kinase assay PKCd. In kind it is biochemical. The note with it: HCl salt. As to the method: as §1
For another data set, the target named is JAK3 (Homo sapiens (Human), UniProt P52333). As to the kind of experiment: Kinase assay JAK3. It counts as biochemical. The settings on record: HCl salt. The method, then:
as §1

The target of a further data set is JAK2 (Homo sapiens (Human), UniProt O60674). The experiment in a line: Kinase assay JAK2. In kind it is biochemical. The settings on record: HCl salt.
The target of another data set is ROCK2 (Homo sapiens (Human), UniProt O75116). The experiment in a line: Kinase assay ROCK2. It counts as biochemical. The settings on record: HCl salt. As to the method: as §1
A short description of a further data set: in vitro. It counts as cell-based.
A further data set concerns the target PKCe (Homo sapiens (Human), UniProt Q02156). As to the kind of experiment: Kinase assay PKCe. The note with it: HCl salt. It counts as biochemical. The method, then:
as §1

The subject of data set [1] is Myeloperoxidase (MPO) activity. As to the kind of experiment: Myeloperoxidase (MPO) activity after intravitreal LPS in mice. It counts as in vivo, C57Bl6 male mice. The settings on record: dosed at 0 and 6 hours. As to the method: Adult C57Bl6 male mice were injected with 2 ng of lipopolysaccharide (LPS) intravitreally. The mice were then dosed with vehicle, compounds or control treatments (0.07% w/w, 0.02% w/w or 0.007% w/w) at times 0 and 6 hours post-injection. Aqueous humor (AH) and vitreous humor (VH) was collected 24 hours after injection of LPS and assayed for MPO activity by ELISA. Data is a compilation of two separate experiments. Statistical analysis was carried out on GraphPad prism using a multiple comparisons 1-way ANOVA with uncorrected Dunn's test. Results are shown in FIG. 5 (aqueous humor) and FIG. 6 (vitreous humor). In FIG. 5 and FIG. 6, Dex refers to dexamethasone, Compound A refers to (S)-3-amino-2-(4-(hydroxymethyl)phenyl)-N-(isoquinolin-6-yl)propanamide, * refers to p<0.05, and ** refers to p<0.005. MPO levels correspond to levels of neutrophil infiltration. In the context of non-infectious inflammatory events, neutrophils cause robust levels of damage to tissues.

Another data set concerns PTM. The experiment in a line: PTM assay. In kind it is cell-based. The settings on record: HCl salt. As to the method: as §1
The target of the next data set is TYK2 (Homo sapiens (Human), UniProt P29597). As to the kind of experiment: Kinase assay TYK2. It counts as biochemical. The settings on record: HCl salt. As to the method: as §1
TYK2, sequence (P29597 whole entry, species assumed): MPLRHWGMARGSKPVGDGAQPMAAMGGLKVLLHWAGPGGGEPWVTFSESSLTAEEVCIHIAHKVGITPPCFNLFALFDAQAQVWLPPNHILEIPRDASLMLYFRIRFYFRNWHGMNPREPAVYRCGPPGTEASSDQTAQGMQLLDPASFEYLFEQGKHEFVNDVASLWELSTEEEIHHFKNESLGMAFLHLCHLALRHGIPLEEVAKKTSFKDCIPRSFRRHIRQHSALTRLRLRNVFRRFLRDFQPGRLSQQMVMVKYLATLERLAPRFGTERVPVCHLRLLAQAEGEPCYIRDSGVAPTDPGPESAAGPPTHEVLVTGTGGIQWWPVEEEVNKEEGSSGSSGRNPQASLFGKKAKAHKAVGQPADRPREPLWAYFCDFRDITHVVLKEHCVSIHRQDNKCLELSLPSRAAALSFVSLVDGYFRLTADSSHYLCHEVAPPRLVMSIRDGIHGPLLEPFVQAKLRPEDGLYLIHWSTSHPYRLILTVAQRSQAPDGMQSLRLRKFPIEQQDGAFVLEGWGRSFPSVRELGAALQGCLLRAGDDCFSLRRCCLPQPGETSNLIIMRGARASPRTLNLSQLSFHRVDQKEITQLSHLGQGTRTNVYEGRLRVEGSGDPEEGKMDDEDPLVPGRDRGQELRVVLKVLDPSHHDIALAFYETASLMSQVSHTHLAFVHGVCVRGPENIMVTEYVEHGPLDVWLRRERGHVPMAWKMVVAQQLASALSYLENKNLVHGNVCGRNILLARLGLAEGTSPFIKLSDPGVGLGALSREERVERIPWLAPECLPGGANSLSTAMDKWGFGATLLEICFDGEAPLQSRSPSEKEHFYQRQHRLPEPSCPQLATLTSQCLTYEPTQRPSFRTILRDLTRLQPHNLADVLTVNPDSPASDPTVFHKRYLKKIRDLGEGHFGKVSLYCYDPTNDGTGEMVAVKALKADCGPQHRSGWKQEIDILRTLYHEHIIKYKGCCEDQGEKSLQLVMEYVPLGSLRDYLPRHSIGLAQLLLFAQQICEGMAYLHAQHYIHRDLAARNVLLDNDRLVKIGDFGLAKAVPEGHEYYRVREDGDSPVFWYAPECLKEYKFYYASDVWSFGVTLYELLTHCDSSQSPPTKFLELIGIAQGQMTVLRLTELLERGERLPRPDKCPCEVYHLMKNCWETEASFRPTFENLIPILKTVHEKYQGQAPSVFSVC
The target in a further data set is ROCK1 (Homo sapiens (Human), UniProt Q13464). As to the kind of experiment: Kinase assay ROCK1. In kind it is biochemical. The settings on record: HCl salt. As to the method: as §1
For the next data set, the system named is HTM. The experiment in a line: HTM assay. The note with it: HCl salt. In kind it is cell-based. The method, then: as §1

PKCe, sequence (Q02156 whole entry, species assumed): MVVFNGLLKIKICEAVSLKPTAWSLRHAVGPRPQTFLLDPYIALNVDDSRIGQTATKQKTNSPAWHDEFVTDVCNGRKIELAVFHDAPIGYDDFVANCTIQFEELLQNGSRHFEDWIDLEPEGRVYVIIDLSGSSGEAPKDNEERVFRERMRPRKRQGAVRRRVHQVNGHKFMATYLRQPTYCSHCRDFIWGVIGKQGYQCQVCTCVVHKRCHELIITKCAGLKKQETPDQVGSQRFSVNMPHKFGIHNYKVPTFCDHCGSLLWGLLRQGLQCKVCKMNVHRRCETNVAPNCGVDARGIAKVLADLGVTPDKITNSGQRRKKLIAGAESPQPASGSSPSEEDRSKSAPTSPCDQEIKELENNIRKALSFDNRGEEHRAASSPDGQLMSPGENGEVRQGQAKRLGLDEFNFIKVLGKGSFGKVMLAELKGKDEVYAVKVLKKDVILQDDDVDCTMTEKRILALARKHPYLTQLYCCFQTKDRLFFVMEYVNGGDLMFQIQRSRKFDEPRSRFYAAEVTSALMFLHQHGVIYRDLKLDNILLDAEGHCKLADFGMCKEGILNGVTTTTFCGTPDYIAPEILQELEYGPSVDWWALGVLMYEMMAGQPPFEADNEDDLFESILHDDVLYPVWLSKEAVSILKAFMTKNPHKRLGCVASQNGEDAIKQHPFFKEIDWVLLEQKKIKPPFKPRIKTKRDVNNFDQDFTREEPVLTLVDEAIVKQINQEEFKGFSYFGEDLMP
JAK1, sequence (P23458 whole entry, species assumed): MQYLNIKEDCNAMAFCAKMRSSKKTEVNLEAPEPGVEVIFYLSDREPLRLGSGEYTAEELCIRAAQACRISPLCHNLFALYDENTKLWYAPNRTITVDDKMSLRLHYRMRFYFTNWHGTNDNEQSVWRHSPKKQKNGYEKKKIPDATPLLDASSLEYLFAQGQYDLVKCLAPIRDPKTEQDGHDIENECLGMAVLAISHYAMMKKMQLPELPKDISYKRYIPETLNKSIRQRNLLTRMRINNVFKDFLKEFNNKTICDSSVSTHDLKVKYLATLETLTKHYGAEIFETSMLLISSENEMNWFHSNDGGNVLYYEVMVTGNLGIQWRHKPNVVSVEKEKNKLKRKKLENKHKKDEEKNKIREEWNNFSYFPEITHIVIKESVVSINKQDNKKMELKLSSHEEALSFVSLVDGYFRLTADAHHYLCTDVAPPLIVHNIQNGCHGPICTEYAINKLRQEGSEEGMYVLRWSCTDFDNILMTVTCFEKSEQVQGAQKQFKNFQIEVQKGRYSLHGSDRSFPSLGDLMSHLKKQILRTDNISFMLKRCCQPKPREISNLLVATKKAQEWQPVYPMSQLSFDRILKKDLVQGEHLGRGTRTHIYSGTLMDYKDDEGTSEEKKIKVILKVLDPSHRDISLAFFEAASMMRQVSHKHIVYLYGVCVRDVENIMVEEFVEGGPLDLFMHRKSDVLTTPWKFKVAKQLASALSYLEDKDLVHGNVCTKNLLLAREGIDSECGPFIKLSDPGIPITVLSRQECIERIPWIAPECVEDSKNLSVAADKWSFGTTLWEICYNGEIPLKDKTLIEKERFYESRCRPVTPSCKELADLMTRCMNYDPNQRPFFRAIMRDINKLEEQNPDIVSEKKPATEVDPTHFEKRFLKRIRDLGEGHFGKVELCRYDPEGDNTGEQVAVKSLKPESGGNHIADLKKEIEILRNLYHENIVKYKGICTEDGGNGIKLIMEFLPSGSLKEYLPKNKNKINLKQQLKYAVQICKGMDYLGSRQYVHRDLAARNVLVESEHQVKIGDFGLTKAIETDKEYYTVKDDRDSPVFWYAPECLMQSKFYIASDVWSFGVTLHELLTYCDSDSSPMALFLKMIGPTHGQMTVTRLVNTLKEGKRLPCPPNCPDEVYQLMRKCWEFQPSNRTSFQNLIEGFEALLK
PKCh, sequence (P24723 whole entry): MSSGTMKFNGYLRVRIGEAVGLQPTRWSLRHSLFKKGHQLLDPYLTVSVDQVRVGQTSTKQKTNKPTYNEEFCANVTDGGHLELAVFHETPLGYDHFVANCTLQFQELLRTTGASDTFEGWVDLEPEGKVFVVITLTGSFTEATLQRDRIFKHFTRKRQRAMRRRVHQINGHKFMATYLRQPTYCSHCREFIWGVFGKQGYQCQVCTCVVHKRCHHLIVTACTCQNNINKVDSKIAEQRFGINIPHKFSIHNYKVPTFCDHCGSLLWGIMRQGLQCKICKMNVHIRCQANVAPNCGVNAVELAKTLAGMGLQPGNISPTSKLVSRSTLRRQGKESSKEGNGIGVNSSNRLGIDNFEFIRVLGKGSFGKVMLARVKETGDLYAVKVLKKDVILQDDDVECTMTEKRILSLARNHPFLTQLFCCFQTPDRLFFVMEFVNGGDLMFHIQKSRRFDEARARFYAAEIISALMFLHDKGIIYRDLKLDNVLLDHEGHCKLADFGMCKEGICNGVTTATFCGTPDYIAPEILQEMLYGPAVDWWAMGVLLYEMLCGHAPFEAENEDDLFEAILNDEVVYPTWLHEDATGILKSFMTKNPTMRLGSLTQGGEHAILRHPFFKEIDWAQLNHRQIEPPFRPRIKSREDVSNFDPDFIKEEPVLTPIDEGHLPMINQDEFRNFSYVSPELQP
AKT1, sequence (P31749 whole entry, species assumed): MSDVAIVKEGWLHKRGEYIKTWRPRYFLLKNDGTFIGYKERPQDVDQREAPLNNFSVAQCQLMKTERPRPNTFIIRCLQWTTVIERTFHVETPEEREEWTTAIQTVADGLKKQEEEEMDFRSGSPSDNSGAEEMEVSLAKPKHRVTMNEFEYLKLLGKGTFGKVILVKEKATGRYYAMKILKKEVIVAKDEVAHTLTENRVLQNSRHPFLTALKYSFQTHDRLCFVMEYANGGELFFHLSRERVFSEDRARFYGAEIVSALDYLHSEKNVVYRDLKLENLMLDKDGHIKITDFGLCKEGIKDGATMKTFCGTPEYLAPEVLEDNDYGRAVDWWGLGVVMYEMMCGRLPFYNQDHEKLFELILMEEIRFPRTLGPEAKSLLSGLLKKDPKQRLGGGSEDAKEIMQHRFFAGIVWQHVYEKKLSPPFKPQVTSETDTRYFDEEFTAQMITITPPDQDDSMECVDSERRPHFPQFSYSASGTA

In the case of `CC1(C)O[C@@H]2C[C@H]3[C@@H]4CCC5=CC(=O)C=C[C@]5(C)[C@@]4(F)[C@@H](O)C[C@]3(C)[C@]2(C(=O)COC(=O)CCC(=O)OCc2ccc([C@@H](CN)C(=O)Nc3ccc4cnccc4c3)cc2)O1` [Example 33], the IC50 stood at 103 nM in the data set on NFkB; 1240 nM at AKT1; 40100 nM on IKKb; 81 nM at PKA; 50000 nM on JAK1; 145 nM at PKCh. The IC50 was 142 nM on PKCd; 30100 nM at JAK3; 42400 nM at JAK2; 14 nM at ROCK2; 55200 nM in “in vitro”; 1580 nM at PKCe. For the same compound, the IC50 amounted to 75 nM in the data set with PTM, 50000 nM on TYK2, 21 nM on ROCK1 and 4 nM with HTM. The “effect on myeloperoxidase activity in aqueous humor” value in data set [1] (aqueous humor 24 hours, FIG. 5) was “inhibiting effect”. For the same compound, the “effect on myeloperoxidase activity in vitreous humor” value in [1] (vitreous humor 24 hours, FIG. 6) is “inhibiting effect”.

On to `C[C@@H]1C[C@H]2[C@@H]3CCC4=CC(=O)C=C[C@]4(C)[C@@]3(F)[C@@H](O)C[C@]2(C)[C@@]1(O)C(=O)COC(=O)c1ccc(C(=O)OCc2ccc([C@@H](CN)C(=O)Nc3ccc4cnccc4c3)cc2)cc1` [Example 66, 4-((S)-3-amino-1-(isoquinolin-6-ylamino)-1-oxopropan-2-yl)benzyl (2-((8S,9R,10S,11S,13S,14S,16R,17R)-9-fluoro-11,17-dihydroxy-10,13,16-trimethyl-3-oxo-6,7,8,9,10,11,12,13,14,15,16,17-dodecahydro-3H-cyclopenta[a]phenanthren-17-yl)-2-oxoethyl) terephthalate dihydrochloride], for which the IC50 was found to be 55 nM in the data set with NFkB; 1360 nM on AKT1; 50000 nM on IKKb; 117 nM at PKA; 50000 nM on JAK1; 282 nM on PKCh. The IC50 on PKCd was found to be 357 nM; on JAK3 it was 43200 nM; at JAK2, 36200 nM; at ROCK2 it was 26 nM; in the data set “in vitro”, 100000 nM; at PKCe, 3610 nM. Besides, the IC50 in the data set on PTM is 358 nM; at TYK2, 50000 nM; on ROCK1 it was 36 nM; in the data set on HTM, 15 nM.

With `C[C@@H]1C[C@H]2[C@@H]3CCC4=CC(=O)C=C[C@]4(C)[C@@]3(F)[C@@H](O)C[C@]2(C)[C@@]1(O)C(=O)COC(=O)C[C@H](N)C(=O)OCc1ccc([C@@H](CN)C(=O)Nc2ccc3cnccc3c2)cc1` [Example 83, 1-(4-((S)-3-amino-1-(isoquinolin-6-ylamino)-1-oxopropan-2-yl)benzyl) 4-(2-((8S,9R,10S,11S,13S,14S,16R,17R)-9-fluoro-11,17-dihydroxy-10,13,16-trimethyl-3-oxo-6,7,8,9,10,11,12,13,14,15,16,17-dodecahydro-3H-cyclopenta[a]phenanthren-17-yl)-2-oxoethyl) L-aspartate trihydrochloride], the IC50 turned out to be 55 nM with NFkB; 95 nM at AKT1; 19200 nM at IKKb; 29 nM on PKA; 34700 nM at JAK1; 51 nM on PKCh. Further, the IC50 on PKCd stood at 56 nM; on JAK3, 7730 nM; at JAK2, 22000 nM; at ROCK2, 9 nM; in “in vitro”, 100000 nM; on PKCe, 154 nM. The IC50 in the data set on PTM is 43 nM; at TYK2 it was 50000 nM; on ROCK1 it was 11 nM; in the data set on HTM, 25 nM.

The IC50 is the midpoint of a concentration-inhibition curve.
